According to US20120065228A1, “COMPOSITIONS AND METHODS FOR TREATING, CONTROLLING, REDUCING, OR AMELIORATING OCULAR INFLAMMATORY WITH LOWER RISK OF INCREASED INTRAOCULAR PRESSURE” (priority 2007, published 2012):

What was measured:
[1] = tested on: intraocular pressure (IOP); assay: Clinical dose ranging study after cataract surgery: intraocular pressure (safety); type: in vivo, human
Excerpt: There were 8 treatment groups in this study, consisting of three drug doses, vehicle and three dosing frequencies (see also Table 4-1): • Group A: 1% BOL-303242-X ophthalmic suspension, two times per day (BID) • Group B: 2% BOL-303242-X ophthalmic suspension, one time per day (QD) • Group C: 2% BOL-303242-X ophthalmic suspension, BID • Group D: 2% BOL-303242-X ophthalmic suspension, four times per day (QID) • Group E: 3% BOL-303242-X ophthalmic suspension, QD • Group F: 3% BOL-303242-X ophthalmic suspension, BID • Group G: 3% BOL-303242-X ophthalmic suspension, QID • Group H: Vehicle for BOL-303242-X (divided equally into QID, BID, and QD)
Subjects self-administered study drug, instilling 1 to 2 drops of study drug into the study eye: QID at approximately 4 hour intervals, BID at approximately 12 hour intervals, or QD once in the morning, for 14 days. The initial dose occurred in the clinic at Visit 3 and the final dose was on the day before Visit 6 (postoperative Day 15±1 day). Subjects were examined and evaluated according to the following schedule:
Visit 1 (screening), Visit 2 (cataract surgery), Visit 3 (postoperative Day 1), Visit 4 (postoperative Day 3±1 day), Visit 5 (postoperative Day 8±1 day), Visit 6 (postoperative Day 15±1 day), Visit 7 (postoperative Day 18±1 day). […]

COX-2 = COX-2 protein in IL-1β-induced human conjunctival fibroblasts (Western blot); type: cell-based; details: 2 h pretreatment, then 24 h with IL-1β
Method: Cells were washed with ice-cold PBS and lysed in cell lysis buffer (62.5 mM Tris-HCl, pH 6.8, 2% sodium dodecyl sulfate (SDS), 10% glycerol). Cells were sonicated, and centrifuged at 12.000 rpm and protein concentration was determined using the Micro BCA protein assay kit. Proteins in aliquots of cell lysate (˜20 μg protein) were separated by SDS-polyacrylamide electrophoresis (SDS-PAGE) on 10% gels and transferred to PVDF membranes. Membranes were blocked with 5% BSA and exposed to mouse anti-COX-2 antibody (Caymen). The blots were washed, and exposed to horseradish peroxidase-conjugated anti-mouse secondary antibody. After washing, blots were incubated in ECL (enhanced chemiluminescence) solutions and chemiluminescent bands were visualized using the FluorChem imaging system (AlphaInnotech, San Leandro, Calif.). Blots were then stripped and re-probed for glyceraldehyde 3-phosphate dehydrogenase (GAPDH) (Zymed) antibody as loading controls. The experiment was repeated 3 times. Analysis of Western blot band density for COX-2 and GAPDH in captured digital images was done using the Alpha-Innotech Chemi-Imager software (Alpha Innotech; San Leandro, Calif.). Levels of COX-2 protein were normalized to GAPDH.

[2] = tested on: IL-1β-stimulated cytokine expression in primary human corneal epithelial cells; assay: IL-1β-stimulated cytokine production in primary human corneal epithelial cells (30-cytokine Luminex kit); details: primary HCECs, 10 ng/ml IL-1β, 18 h
Method: Primary HCECs were seeded in 24-well plates. […] Each treatment was performed in triplicate. Media were collected and used for determination of cytokine content using a 30-cytokine Luminex kit. Cell viability was determined by alamarBlue assay (LP06013).
Median fluorescence intensity (MFI) was used to obtain the concentration of each cytokines in pg/ml based on the standard curve of each cytokine assayed by Luminex. The linear range of the standard curve for each cytokine was used for determination of cytokine concentration. Duplicate values for each sample were averaged. Data were expressed as mean±SD. Statistical analysis was performed using one-way ANOVA-Dunnett's test, and P<0.05 was considered statistically significant.

[3] = tested on: IL-1β-induced PGE2 release in human conjunctival fibroblasts (HConF); assay: IL-1β-induced PGE2 release in human conjunctival fibroblasts (ELISA); type: cell-based; details: 3-1000 nM, 18 hours
Method: Human conjunctival fibroblasts (HConF) were seeded in 24-well plates in complete Fibroblast Medium (FM) which contained 2% fetal bovine serum (FBS) and Fibroblast Growth Supplement (FGS). After reaching confluence (about 95%), cells were conditioned in basic FM that had been supplemented with 0.5% charcoal-dextran treated fetal bovine serum (CD-FBS) and without Fibroblast Growth Supplement (FGS) for 24 hours. […] Plates were performed in triplicate. Culture media were evaluated for PGE2 release by ELISA.

SMILES: Cc1ccc2c(NCC(O)(CC(C)(C)c3cc(F)cc4c3OCC4)C(F)(F)F)cccc2n1 (stereo not shown) [BOL-303242-X]
- Mean IOP values among groups ([1]; 2% QID and 3% QD groups, Visit 4 (postoperative Day 3) to Visit 7 (postoperative Day 18)): lowest mean IOP values
- Proportion of subjects with mean IOP changes from baseline of ≧5 mmHg or ≧10 mmHg, compared to vehicle ([1]; any dose groups at any study visits): no statistically significant differences
- Production of COX-2 by IL-1β-induced HConF (COX-2): successfully inhibits
- Effect on IL-1β-stimulated G-CSF production [2]: significantly inhibited
- Effect on IL-1β-stimulated production of 6 cytokines (IL-6, IL-7, MCP-1, TGF-α, TNF-α and VEGF) ([2]; comparable potency): significantly inhibited
- Effect on IL-1β-stimulated production of 3 cytokines (GM-CSF, IL-8, and RANTES) ([2]; less potency compared to dexamethasone): significantly inhibited
- Production of PGE2 by IL-1β-induced HConF [3]: successfully inhibits
